Measured values published in the supplement of paper PMC10307832.

Legend:
Experiment in all cases: relative viability (nuclei count vs DMSO), 5 days (fraction); higher = more cells survive
Sorafenib + Luminespib = compound: CNC(=O)c1cc(Oc2ccc(NC(=O)Nc3ccc(Cl)c(C(F)(F)F)c3)cc2)ccn1 [Sorafenib] + CCNC(=O)c1noc(-c2cc(C(C)C)c(O)cc2O)c1-c1ccc(CN2CCOCC2)cc1 [Luminespib] (partner 0.01 µM)
Procedure, shortened: (§1)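 Lung cancer cell lines, seeded in 1536-well plates, were treated the following day by pin tool with a single drug or with five library-drug doses (not always all listed) in √10 steps on top of a fixed anchor-drug dose. Cells were fixed and nuclei stained in one step after 5 days, and nuclei were counted. Relative viability is the nuclei count for treated wells divided by that for vehicle wells, reported as medians of duplicate plates.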

Sorafenib + Trametinib = compound: CNC(=O)c1cc(Oc2ccc(NC(=O)Nc3ccc(Cl)c(C(F)(F)F)c3)cc2)ccn1 [Sorafenib] + CC(=O)Nc1cccc(-n2c(=O)n(C3CC3)c(=O)c3c(Nc4ccc(I)cc4F)n(C)c(=O)c(C)c32)c1 [Trametinib] (partner 0.02 µM)
Procedure, shortened: as §1

Sorafenib + Pemetrexed = compound: CNC(=O)c1cc(Oc2ccc(NC(=O)Nc3ccc(Cl)c(C(F)(F)F)c3)cc2)ccn1 [Sorafenib] + Nc1nc2[nH]cc(CCc3ccc(C(=O)N[C@@H](CCC(=O)O)C(=O)O)cc3)c2c(=O)[nH]1 [Pemetrexed] (partner 0.2 µM)
Procedure, shortened: as §1

Sorafenib + Alpelisib = compound: CNC(=O)c1cc(Oc2ccc(NC(=O)Nc3ccc(Cl)c(C(F)(F)F)c3)cc2)ccn1 [Sorafenib] + Cc1nc(NC(=O)N2CCC[C@H]2C(N)=O)sc1-c1ccnc(C(C)(C)C(F)(F)F)c1 [Alpelisib] (partner 2 µM)
Procedure, shortened: as §1

Sorafenib + Lapatinib = compound: CNC(=O)c1cc(Oc2ccc(NC(=O)Nc3ccc(Cl)c(C(F)(F)F)c3)cc2)ccn1 [Sorafenib] + CS(=O)(=O)CCNCc1ccc(-c2ccc3ncnc(Nc4ccc(OCc5cccc(F)c5)c(Cl)c4)c3c2)o1 [Lapatinib] (partner 2 µM)
Procedure, shortened: as §1

Cell Line	relative viability (Sorafenib + Luminespib; first compound 0.08 µM)	relative viability (Sorafenib + Luminespib; first compound 0.253 µM)	relative viability (Sorafenib + Luminespib; first compound 2.53 µM)	relative viability (Sorafenib + Luminespib; first compound 8 µM)	relative viability (Sorafenib + Trametinib; first compound 0.08 µM)	relative viability (Sorafenib + Trametinib; first compound 0.253 µM)	relative viability (Sorafenib + Trametinib; first compound 2.53 µM)	relative viability (Sorafenib + Trametinib; first compound 8 µM)	relative viability (Sorafenib + Pemetrexed; first compound 0.08 µM)	relative viability (Sorafenib + Pemetrexed; first compound 0.253 µM)	relative viability (Sorafenib + Pemetrexed; first compound 2.53 µM)	relative viability (Sorafenib + Pemetrexed; first compound 8 µM)	relative viability (Sorafenib + Alpelisib; first compound 0.08 µM)	relative viability (Sorafenib + Alpelisib; first compound 2.53 µM)	relative viability (Sorafenib + Alpelisib; first compound 8 µM)	relative viability (Sorafenib + Lapatinib; first compound 0.08 µM)	relative viability (Sorafenib + Lapatinib; first compound 0.253 µM)	relative viability (Sorafenib + Lapatinib; first compound 2.53 µM)	relative viability (Sorafenib + Lapatinib; first compound 8 µM)	relative viability (Sorafenib + Alpelisib; first compound 0.253 µM)
HCC-827	0.709	0.525	0.59	0.638	0.547	0.582	0.457	0.422	0.255	0.288	0.281	0.251	1.07	0.988	0.826	0.23	0.191	0.155	0.237	
HOP-62	0.981	0.865	0.705	0.886	0.438	0.45	0.372	0.209	0.324	0.303	0.193	0.135	0.995	0.765	0.794	0.928	0.872	0.879	0.93	0.775
IA-LM													0.714	0.431	0.442	0.491	0.358	0.456	0.446	0.547
LC-2-ad	1.01	1.04	1.06	0.879	0.934	0.822	0.732	0.396	0.305	0.293	0.258	0.274	1.02		0.678	1.05	0.878	0.587	0.314	0.863
LCLC-97TM1	0.97	0.743	0.716	0.56	0.198	0.199	0.133	0.103	0.154	0.168	0.118	0.226	0.237	0.184	0.198	0.678	0.707	0.701	0.603	0.247
LCLC-103H	0.964	0.939	1.03	0.837	0.68	0.731	0.691	0.674	0.526	0.437	0.422	0.451	1.06	0.893	1.18					0.991
LK-2	0.228	0.197	0.175	0.172	0.78	0.764	0.512	0.239	0.331	0.254	0.303	0.194	1.06	0.89	0.647	1.22	0.804	0.906	0.671	
LOU-NH91	0.306	0.359	0.418	0.336	0.782	0.769	0.837	0.746	0.419	0.37	0.436		0.896	0.885	0.589		0.71	0.829	0.728	0.791
LU99A	0.359	0.25	0.204	0.318	0.509	0.404	0.252	0.263	0.195	0.166	0.193	0.138	0.58	0.468	0.453	1.16	0.998	0.952	0.895	0.435
LXF-289	0.706	0.648	0.634	0.588	0.638		0.617	0.513	0.886	0.782	0.932	0.787	1.09	1.05	1.02	0.91	0.831	0.938		1.04
NCI-H23	0.225		0.228	0.213	0.406	0.397	0.288	0.225	0.764	0.609	0.716	0.421	0.74	0.745	0.498	1.23	1.07	1.02	0.908	0.632
NCI-H322M	1.03	1.03	1.24	1.06	0.769	0.52	0.455	0.481	0.728	0.618	0.739	0.763	0.815	0.877	0.84	0.597	0.639	0.727	0.665	0.916
NCI-H358	0.242	0.285	0.295	0.239	0.14	0.143	0.116	0.107	0.168	0.146	0.145	0.144	1.06	0.934	0.337	0.453	0.45	0.558	0.519	1.12
NCI-H441	0.326		0.29	0.287	0.564	0.408	0.457	0.27	0.283	0.234	0.257	0.227	0.683	0.5	0.538					0.522
NCI-H727	0.528	0.344	0.501	0.221	0.416	0.351	0.391	0.367					0.623	0.702	0.326	0.777	0.597	0.771	0.486	0.579
NCI-H1563	0.533	0.471	0.527	0.529					0.969	0.654	0.775	0.659	0.903	0.894	0.728	1.01	0.92	0.884	0.671	1
NCI-H1650	0.183	0.183	0.193	0.209	0.858	0.499	0.752	0.241	0.405	0.454	0.531	0.334				0.96	0.776	0.787	0.224	
NCI-H1703													0.301	0.189	0.156	0.716	0.435	0.28	0.221	0.176
SW 900	0.147	0.16	0.171	0.165		0.792	0.934	0.719	0.462	0.479	0.517	0.471								
